Results reported in the supplement of paper PMC12076712.
± gives the standard deviation of the averaged measurements.

What was measured:
Assay in all cases: pIC50, kinobeads binding competition
Conditions in all cases: cell material: Jurkat lysate
ULK1 = target: T1, ULK1 (UniProt O75385)
T1 sequence (whole entry): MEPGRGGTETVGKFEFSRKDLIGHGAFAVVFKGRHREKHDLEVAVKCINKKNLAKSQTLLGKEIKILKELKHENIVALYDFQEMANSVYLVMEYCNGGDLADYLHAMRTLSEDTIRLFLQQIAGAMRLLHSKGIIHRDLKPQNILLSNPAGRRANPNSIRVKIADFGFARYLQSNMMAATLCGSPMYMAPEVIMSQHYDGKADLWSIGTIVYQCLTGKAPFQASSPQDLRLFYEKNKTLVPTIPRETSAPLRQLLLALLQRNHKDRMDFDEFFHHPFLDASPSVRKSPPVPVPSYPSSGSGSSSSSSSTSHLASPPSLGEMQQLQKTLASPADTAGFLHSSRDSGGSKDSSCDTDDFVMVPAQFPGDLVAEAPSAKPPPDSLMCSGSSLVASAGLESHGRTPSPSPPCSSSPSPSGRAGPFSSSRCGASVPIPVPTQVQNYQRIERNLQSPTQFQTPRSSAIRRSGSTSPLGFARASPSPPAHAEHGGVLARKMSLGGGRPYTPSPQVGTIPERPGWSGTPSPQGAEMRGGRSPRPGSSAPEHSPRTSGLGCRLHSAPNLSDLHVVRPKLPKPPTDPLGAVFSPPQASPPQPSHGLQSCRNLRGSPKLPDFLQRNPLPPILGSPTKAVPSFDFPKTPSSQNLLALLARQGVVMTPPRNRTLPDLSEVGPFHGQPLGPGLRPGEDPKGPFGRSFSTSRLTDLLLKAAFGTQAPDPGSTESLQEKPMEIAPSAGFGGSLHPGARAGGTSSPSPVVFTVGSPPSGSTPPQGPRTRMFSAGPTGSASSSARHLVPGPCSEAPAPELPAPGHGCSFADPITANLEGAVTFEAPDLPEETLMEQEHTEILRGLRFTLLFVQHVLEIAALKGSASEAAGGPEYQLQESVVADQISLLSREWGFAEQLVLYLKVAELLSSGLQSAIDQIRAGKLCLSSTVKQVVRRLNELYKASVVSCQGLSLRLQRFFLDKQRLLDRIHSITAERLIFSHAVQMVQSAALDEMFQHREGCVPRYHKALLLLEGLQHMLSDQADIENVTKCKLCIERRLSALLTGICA

LIMK2 = LIMK2 (UniProt P53671)
LIMK2, sequence (P53671 whole entry, looked up): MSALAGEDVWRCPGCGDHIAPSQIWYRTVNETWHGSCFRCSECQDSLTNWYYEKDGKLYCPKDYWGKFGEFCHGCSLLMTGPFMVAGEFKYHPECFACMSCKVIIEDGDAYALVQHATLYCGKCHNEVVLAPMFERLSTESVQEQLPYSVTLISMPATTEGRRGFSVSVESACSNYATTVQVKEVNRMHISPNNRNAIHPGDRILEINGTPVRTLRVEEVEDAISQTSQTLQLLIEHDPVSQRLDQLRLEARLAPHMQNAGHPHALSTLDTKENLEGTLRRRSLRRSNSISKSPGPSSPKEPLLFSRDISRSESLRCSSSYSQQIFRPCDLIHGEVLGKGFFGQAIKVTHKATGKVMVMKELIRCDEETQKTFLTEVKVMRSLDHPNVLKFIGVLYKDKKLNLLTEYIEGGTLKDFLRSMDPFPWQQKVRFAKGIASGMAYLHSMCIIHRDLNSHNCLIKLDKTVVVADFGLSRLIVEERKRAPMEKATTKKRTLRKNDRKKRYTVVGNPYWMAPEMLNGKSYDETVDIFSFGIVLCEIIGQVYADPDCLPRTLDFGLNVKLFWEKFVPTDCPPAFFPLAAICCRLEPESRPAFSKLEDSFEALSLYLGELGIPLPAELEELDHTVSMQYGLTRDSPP

HIPK1 = HIPK1 (UniProt Q86Z02)
UniProt Q9H0K1 = target: UniProt Q9H0K1
UniProt Q9H0K1, sequence (Q9H0K1 whole entry, looked up): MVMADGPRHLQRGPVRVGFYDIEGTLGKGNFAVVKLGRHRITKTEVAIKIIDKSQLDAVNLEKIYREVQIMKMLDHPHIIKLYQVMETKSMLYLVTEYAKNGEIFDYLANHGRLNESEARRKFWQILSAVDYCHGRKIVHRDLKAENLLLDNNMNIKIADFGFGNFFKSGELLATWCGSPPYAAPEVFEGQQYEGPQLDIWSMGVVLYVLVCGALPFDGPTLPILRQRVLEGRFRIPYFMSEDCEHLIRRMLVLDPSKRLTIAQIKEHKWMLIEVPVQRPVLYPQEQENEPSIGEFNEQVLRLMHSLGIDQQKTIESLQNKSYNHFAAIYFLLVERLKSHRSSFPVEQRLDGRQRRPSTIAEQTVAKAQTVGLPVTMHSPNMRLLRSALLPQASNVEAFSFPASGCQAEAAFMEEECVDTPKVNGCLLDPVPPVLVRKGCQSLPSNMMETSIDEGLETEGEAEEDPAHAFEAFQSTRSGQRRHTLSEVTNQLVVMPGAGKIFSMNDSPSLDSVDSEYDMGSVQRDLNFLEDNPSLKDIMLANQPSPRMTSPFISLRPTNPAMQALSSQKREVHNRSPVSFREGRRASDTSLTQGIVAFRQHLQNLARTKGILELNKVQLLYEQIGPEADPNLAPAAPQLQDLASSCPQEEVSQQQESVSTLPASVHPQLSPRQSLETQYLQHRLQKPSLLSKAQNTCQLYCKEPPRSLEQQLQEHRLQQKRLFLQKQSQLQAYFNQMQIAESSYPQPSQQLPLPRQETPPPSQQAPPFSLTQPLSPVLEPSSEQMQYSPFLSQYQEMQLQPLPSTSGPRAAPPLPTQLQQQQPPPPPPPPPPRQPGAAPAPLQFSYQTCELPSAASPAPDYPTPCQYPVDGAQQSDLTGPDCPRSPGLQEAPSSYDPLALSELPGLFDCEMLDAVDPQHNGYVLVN

UniProt O75582 = target: UniProt O75582
UniProt O75582, sequence (O75582 whole entry, looked up): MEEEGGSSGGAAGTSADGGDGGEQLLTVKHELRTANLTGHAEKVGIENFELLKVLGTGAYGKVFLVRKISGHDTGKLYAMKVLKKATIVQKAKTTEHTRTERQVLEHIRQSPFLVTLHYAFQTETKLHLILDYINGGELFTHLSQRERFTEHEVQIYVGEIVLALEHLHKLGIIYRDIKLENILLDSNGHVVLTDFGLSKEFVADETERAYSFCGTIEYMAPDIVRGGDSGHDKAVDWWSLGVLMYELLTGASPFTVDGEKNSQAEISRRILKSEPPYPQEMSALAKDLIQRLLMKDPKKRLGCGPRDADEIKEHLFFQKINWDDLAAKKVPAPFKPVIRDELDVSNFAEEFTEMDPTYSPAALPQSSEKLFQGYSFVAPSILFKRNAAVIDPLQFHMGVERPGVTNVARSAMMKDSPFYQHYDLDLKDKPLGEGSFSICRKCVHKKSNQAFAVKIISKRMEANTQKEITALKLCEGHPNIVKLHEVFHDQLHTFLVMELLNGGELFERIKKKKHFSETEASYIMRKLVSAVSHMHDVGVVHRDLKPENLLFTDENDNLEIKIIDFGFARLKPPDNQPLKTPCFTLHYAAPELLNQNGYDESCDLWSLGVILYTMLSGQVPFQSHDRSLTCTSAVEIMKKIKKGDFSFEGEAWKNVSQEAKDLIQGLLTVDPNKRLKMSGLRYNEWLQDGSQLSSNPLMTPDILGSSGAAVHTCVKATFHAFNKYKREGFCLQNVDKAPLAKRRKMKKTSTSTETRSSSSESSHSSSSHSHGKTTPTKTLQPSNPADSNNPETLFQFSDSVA

PIK3R4 = PIK3R4 (UniProt Q99570)
PIK3R4, sequence (Q99570 whole entry): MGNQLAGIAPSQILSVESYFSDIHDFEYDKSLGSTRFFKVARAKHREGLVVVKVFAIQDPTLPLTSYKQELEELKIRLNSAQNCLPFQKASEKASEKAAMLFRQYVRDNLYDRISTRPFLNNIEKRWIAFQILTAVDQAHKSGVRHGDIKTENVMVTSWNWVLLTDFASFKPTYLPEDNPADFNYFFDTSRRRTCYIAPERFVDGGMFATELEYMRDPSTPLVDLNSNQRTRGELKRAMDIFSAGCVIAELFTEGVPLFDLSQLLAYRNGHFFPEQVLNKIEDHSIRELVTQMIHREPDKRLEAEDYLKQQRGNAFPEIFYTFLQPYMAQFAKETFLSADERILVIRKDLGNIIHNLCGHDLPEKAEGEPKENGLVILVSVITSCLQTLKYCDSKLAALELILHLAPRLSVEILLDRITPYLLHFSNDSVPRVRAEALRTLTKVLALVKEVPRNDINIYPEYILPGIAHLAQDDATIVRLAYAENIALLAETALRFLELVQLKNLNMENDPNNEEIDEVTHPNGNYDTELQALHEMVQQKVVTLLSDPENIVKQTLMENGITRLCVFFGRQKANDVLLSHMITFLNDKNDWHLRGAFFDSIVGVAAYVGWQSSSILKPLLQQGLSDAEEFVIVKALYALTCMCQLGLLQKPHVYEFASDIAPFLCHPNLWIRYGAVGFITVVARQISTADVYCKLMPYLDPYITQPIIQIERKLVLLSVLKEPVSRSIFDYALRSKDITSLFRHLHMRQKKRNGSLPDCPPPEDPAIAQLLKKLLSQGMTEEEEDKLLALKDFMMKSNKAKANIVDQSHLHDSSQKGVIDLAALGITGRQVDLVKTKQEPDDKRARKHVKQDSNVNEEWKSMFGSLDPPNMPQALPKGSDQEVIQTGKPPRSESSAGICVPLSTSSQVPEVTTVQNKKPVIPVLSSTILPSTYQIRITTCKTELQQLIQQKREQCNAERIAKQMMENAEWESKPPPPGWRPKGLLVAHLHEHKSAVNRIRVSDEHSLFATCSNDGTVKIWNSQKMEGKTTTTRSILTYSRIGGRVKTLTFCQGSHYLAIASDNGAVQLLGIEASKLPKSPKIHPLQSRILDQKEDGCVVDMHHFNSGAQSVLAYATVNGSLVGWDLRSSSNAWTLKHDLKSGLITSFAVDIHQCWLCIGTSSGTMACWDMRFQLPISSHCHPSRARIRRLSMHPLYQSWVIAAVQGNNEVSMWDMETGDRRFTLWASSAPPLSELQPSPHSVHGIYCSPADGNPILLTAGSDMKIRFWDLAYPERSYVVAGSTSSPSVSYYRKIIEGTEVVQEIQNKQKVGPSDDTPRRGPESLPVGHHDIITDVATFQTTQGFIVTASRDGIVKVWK

CAMKK2 = CAMKK2 (UniProt Q96RR4)
CAMKK2, sequence (Q96RR4 whole entry, looked up): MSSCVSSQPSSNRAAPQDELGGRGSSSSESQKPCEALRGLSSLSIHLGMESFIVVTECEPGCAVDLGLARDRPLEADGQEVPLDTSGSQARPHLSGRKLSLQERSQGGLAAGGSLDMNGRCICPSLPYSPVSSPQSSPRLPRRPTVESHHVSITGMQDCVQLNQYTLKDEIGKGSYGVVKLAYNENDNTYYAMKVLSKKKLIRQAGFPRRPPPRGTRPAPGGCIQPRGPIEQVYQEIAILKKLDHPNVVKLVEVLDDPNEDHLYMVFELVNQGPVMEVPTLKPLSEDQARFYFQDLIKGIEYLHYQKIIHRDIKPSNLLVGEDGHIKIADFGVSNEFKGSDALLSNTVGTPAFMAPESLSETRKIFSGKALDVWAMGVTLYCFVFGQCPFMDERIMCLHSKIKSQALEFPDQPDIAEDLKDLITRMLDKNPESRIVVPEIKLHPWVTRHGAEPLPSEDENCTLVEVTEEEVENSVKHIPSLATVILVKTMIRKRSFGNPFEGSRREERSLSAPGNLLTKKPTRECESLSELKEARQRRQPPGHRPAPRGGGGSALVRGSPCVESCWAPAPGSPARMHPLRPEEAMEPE

PKMYT1 = target: T2, PKMYT1 (UniProt Q99640)
T2 sequence (whole entry): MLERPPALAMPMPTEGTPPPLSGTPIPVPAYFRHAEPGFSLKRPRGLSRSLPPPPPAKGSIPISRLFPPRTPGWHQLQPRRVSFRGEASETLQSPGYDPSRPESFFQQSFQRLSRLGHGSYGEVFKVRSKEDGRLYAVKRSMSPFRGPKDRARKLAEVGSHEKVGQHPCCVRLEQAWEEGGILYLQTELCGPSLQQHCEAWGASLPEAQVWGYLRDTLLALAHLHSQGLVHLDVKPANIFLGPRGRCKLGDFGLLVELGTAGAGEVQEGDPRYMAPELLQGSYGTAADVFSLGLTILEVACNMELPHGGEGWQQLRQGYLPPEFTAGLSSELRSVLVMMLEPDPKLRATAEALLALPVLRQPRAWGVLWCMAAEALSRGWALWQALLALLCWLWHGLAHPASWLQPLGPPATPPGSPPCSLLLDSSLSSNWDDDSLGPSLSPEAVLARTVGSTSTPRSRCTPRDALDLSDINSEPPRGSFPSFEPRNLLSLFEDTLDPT

JAK1 = JAK1 (UniProt P23458)
MAP4K3 = target: T3, MAP4K3 (UniProt Q8IVH8)
T3 sequence (whole entry): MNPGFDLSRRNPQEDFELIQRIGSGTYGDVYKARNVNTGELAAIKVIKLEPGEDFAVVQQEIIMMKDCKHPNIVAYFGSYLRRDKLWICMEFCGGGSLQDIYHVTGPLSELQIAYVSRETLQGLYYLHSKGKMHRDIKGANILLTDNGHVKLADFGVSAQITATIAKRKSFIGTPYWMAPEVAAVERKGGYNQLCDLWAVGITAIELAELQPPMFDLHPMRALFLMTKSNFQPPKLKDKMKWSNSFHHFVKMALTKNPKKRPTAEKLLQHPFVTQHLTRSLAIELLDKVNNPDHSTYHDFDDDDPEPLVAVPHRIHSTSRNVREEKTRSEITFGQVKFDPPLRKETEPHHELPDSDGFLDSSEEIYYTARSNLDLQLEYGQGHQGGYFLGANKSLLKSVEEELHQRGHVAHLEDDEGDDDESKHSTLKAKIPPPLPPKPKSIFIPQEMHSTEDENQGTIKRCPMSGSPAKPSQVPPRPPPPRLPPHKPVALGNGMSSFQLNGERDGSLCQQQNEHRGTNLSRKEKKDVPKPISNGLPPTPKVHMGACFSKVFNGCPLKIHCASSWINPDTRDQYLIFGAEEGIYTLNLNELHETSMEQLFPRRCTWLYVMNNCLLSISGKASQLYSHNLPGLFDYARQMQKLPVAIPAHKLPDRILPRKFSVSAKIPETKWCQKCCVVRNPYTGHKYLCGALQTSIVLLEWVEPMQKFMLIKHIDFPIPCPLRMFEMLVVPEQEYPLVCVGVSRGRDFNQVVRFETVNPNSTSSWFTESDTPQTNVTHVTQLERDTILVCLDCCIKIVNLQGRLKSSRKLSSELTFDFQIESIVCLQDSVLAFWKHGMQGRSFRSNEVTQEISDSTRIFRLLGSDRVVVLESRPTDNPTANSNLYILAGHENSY

UniProt P28482 = target: UniProt P28482
UniProt P28482, sequence (P28482 whole entry): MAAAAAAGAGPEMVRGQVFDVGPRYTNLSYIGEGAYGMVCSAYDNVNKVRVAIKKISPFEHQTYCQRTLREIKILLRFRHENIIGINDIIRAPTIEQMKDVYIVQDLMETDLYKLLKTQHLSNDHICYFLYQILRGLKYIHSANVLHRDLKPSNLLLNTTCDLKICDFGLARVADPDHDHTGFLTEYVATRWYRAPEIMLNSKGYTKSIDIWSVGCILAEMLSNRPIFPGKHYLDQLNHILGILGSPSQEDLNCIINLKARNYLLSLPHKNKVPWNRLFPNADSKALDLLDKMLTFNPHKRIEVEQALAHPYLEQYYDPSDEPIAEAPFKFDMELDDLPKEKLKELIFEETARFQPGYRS

- pIC50 (ULK1): < 4.52
- pIC50 (LIMK2): < 4.52
- pIC50 (HIPK1): 4.77
- pIC50 (UniProt Q9H0K1): < 4.52
- pIC50 (UniProt O75582): < 4.52
- pIC50 (PIK3R4): < 4.52
- pIC50 (CAMKK2): 5.245 ± 0.035
- pIC50 (PKMYT1): < 4.52
- pIC50 (JAK1): < 4.52
- pIC50 (MAP4K3): < 4.52
- pIC50 (UniProt P28482): < 4.52
SMILES: CCc1cnn2c(NCc3ccc[n+]([O-])c3)cc(N3CCCC[C@H]3CCO)nc12 [dinaciclib]
